The values that follow are results of earlier work, collected in patent US11058674B2 (priority 2016, dated 2021).

On the set-up of data set [1]: key: ∘: Effective. To be noted: alcohol addiction.
On the set-up of data set [2]: key: ∘: Effective. The following applies: alcohol addiction. The source holds these as a separate data set.
The test system of the next data set is rat. Also noted: key to Self-administration Seeking behavior: ∘: Effective; x: Ineffective.
Data set [3] deals with mouse. Details: key to Conditioned place preference Relapse: ∘: Effective. The following applies: for CPP acquisition caused by cocaine / CPP expression caused by cocaine: N/OFQ: intraventricular administration to a mouse.
Data set [4] has as its system mouse. Also noted: key: ∘: Effective. The following applies: cocaine addiction.
For data set [5] the following is noted: believed, from literature.
In data set [6] the test system is mouse. Also noted: key: ∘: Effective; x: Ineffective. To be noted: cocaine addiction.

Read-outs that look alike come from different tables or passages of the source.

For `CNC(=O)Cn1c(=O)n(C2CCN([C@@H]3Cc4cccc5cccc3c45)CC2)c2ccccc21.Cl.O` [MT-7716, (R)-2-{3-[1-(acenaphthen-1-yl)piperidin-4-yl]-2-oxo-2,3-dihydro-1H-benzimidazol-1-yl}-N-methylacetamide hydrochloride monohydrate], in data set [1], the “Self-administration Seeking behavior” value was “∘ ^12)” and the “Self-administration Uptake behavior” value is “∘ ^11)”.
For `Cl.O=C1NCN(c2ccccc2)C12CCN([C@H]1CC[C@@H]3CCCc4cccc1c43)CC2` [Ro64-6198, (1S,3aS)-8-(2,3,3a,4,5,6-hexahydro-1H-phenalen-1-yl)-1-phenyl-1,3,8-triaza-spiro[4.5]decan-4-one hydrochloride], in data set [2], the “Conditioned place preference Acquisition” value is listed as “∘ ^13)”, the “Conditioned place preference Expression” value is given as “∘ ^13)” and the “Conditioned place preference Relapse” value is recorded as “∘ ^13)”. Besides, the “Self-administration Uptake behavior” value in data set [1] is given as “∘ ^10)”.
Turning to “N/OFQ: Endogenous ligands of the NOP receptor, named nociceptin and orphanin FQ”, the “Self-administration Seeking behavior” value with rat (cocaine addiction) was “x ^16)”. Further, the “cocaine seeking behavior induced by a stress after the extinction of the cocaine self-administration” value in the data set on rat (rat) is listed as “does not suppress”. In data set [2], the “Conditioned place preference Acquisition” value is listed as “∘ ^13)”, the “Conditioned place preference Expression” value is listed as “∘ ^13)” and the “Conditioned place preference Relapse” value is reported as “∘ ^13)”. Further, in the data set on mouse [3], the “CPP acquisition caused by cocaine” value is reported as “blocks” and the “CPP expression caused by cocaine” value is “blocks”. In the data set on mouse [4], the “Conditioned place preference Acquisition” value is on record as “∘ ^17)” and the “Conditioned place preference Expression” value is on record as “∘ ^18)”. In addition, in data set [1], the “Self-administration Seeking behavior” value was “∘ ^9)” and the “Self-administration Uptake behavior” value is “∘ ^9)”.
Regarding `Cc1ccccc1C(c1ccccc1C)N1C2CCC1CC(O)(c1ccccc1)C2` (centres unmarked) [SCH221510], the migration to brain entry in data set [5] is reported as “low migration to brain”.
Regarding `Cl.O=C1NCN(c2ccccc2)C12CCN(C1Cc3cccc4cccc1c34)CC2` (centres unmarked) [Ro65-6570, 8-acenaphthen-1-yl-phenyl-1,3,8-triaza-spiro[4.5]decan-4-one hydrochloride], in the data set on mouse [3], the “CPP acquisition caused by cocaine” value is “does not affect” and the “CPP expression caused by cocaine” value was “does not affect”. For the same compound, in the data set on mouse [6], the “Conditioned place preference Acquisition” value is listed as “x ^19)” and the “Conditioned place preference Expression” value is “x ^18)”.
Consider `O=C1Cc2ccccc2N1C1CCN(C2CCC3CCCc4cccc2c43)CC1` (centres unmarked) [AT-202, 1-[1-(2,3,3a,4,5,6-hexahydro-1H-phenalen-1-yl)piperidin-4-yl]-indolin-2-one], for which, in the data set with mouse [3], the “CPP acquisition caused by cocaine” value is listed as “does not affect”. Further, in the data set on mouse [3] (cocaine CPP), the “relapse of CPP caused by a stress” value is “suppresses”. For the same compound, the “Conditioned place preference Relapse” value with mouse [3] (cocaine addiction) is “∘ ^20)”. Also, the “Conditioned place preference Acquisition” value in the data set with mouse [6] is on record as “x ^20)”.
